Laboratory results taken from PMC3842914, “Meleagrin, a New FabI Inhibitor from Penicillium chryosogenum with at Least One Additional Mode of Action” (PLoS ONE, 2013).
In brackets after ≈: the same amount, converted by molar mass. Read-outs that look alike come from different tables or passages of the source.

Legend:
S. aureus RN4220 (pE194) = experiment: Overexpression assay, MIC for vector-containing S. aureus RN4220 (pE194); format: cell-based; settings: Staphylococcus aureus, read-out: MIC S. aureus (pE194)
Experimental: (§1) Whole-cell antimicrobial activity was determined by broth microdilution as described previously. The test strains except for S. pneumoniae were grown to mid-log phase in Mueller–Hinton broth and diluted 1,000-fold in the same medium. Cells (10^5/mL) were inoculated into Mueller–Hinton broth and dispensed at 0.2 mL/well into a 96-well microtiter plate. S. pneumoniae was grown in tryptic soy broth supplemented with 5% sheep blood. MICs were determined in triplicate by serial 2-fold dilutions of test compounds. […] Bacterial growth was determined by measuring the absorption at 650 nm by using a microtiter ELISA reader.
(§2) An overexpression assay using S. aureus RN4220, S. aureus RN4220 (pE194), and S. aureus RN4220 (pE194-fabI) was conducted to perform target validation of FabI inhibitors as described previously. Additionally, both fabI- and fabK-overexpressing E. coli were constructed to test a multitarget effect of the compounds. The wild-type fabI gene from the genomic DNA of E. coli W3110 was amplified by PCR by using the primers 5′-[…]-3′ and 5′-[…]-3′. The wild-type fabK gene from the genomic DNA of S. pneumoniae KCTC 5412 was amplified by PCR by using the primers 5′-[…]-3′ and 5′-[…] […]-3′. The resulting products were cloned into the pBAD-TOPO TA expression vector (Invitrogen, Carlsbad, CA, USA) to yield the pBAD-fabI and pBAD-fabK recombinant plasmids, which placed the expression of the genes fabI and fabK, respectively, under the control of the arabinose promoter. Recombinant pBAD-fabI and pBAD-fabK were then introduced into the pump-negative (tolC) E. coli EW1b via electroporation to generate E. coli EW1b (pBAD-fabI) and E. coli EW1b (pBAD-fabK), respectively.

S. aureus RN4220 [1] = experiment: MIC by broth microdilution, S. aureus RN4220 (wild type); format: cell-based, Staphylococcus aureus; settings: Staphylococcus aureus; S. aureus RN4220 (wild type)
Experimental: as §1

[2] = test system: S. aureus RN4220 (pE194-fabI); experiment: Overexpression assay, MIC for fabI-overexpressing S. aureus RN4220 (pE194-fabI); format: cell-based; settings: Staphylococcus aureus, read-out: MIC S. aureus (pE194-fabI)
Experimental: as §1, §2

S. aureus FabI = target: T1, S. aureus FabI (Staphylococcus aureus, UniProt Q6GI75); experiment: S. aureus FabI enzyme assay (NADPH use at 340 nm, t-o-NAC thioester substrate); format: biochemical
T1 construct: made in house
T1 sequence (Q6GI75 1-256): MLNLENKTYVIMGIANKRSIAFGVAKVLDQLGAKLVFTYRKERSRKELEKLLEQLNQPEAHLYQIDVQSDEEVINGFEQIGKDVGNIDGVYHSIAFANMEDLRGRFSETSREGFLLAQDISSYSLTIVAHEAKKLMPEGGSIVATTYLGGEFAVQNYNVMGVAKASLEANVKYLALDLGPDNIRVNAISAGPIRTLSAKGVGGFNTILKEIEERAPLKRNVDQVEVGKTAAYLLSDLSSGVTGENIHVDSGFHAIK
Text: (§3) S. aureus FabI and E. coli FabI enzymes were cloned, overexpressed, and purified as described previously. The wild-type fabK gene was amplified by PCR from genomic DNA obtained from Streptococcus pneumoniae KCTC 5412 by using the primers 5′-[…]-3′ and 5′-[…]-3′, which contained NdeI and XhoI restriction sites, respectively. After the DNA sequence was confirmed, the gene was cloned into the pET22b vector (Novagen, Gibbstown, NJ, USA). The construct was transformed into E. coli BL21 (DE3) for expression following induction with isopropylthiogalactoside. The C-terminal His-tagged protein was purified as described previously. Assays were conducted in half-area, 96-well microtiter plates. The compounds were dissolved in DMSO and evaluated in 100-μL assay mixtures containing components specific for each enzyme (see below). Reduction of the trans-2-octenoyl N-acetylcysteamine (t-o-NAC thioester) substrate analog was measured spectrophotometrically following the utilization of NADH or NADPH at 340 nm at 30°C for the linear period of the assay. S. aureus FabI assays contained 50 mM sodium acetate (pH 6.5), 200 μM t-o-NAC thioester, 200 μM NADPH, and 150 nM S. aureus FabI.
(§4) NADH was used as a cofactor rather than NADPH for the E. coli FabI assay. Substrate concentrations used for the Lineweaver–Burk plot were 100, 200, 300, and 400 μM, whereas the concentrations of the cofactor were 100, 200, 400, and 600 μM. The rate of decrease in the amount of NADPH in each reaction was measured with a microtiter enzyme-linked immunosorbent assay (ELISA) reader by using the SOFTmax PRO software (Molecular Devices, Sunnyvale, CA, USA). The inhibitory activity was calculated according to the following formula: % of inhibition = 100× [1− (rate in the presence of compound/rate in the untreated control)]. IC50 values were calculated by fitting the data to a sigmoid equation. An equal volume of DMSO solvent was used for the untreated control. FabK assays contained 100 mM sodium acetate (pH 6.5), 2% glycerol, 200 mM NH4Cl, 50 µM t-o-NAC thioester, 200 µM NADH, and 150 nM S. pneumoniae FabK.

E. coli EW1b(pBAD-fabI) = experiment: Overexpression assay, MIC for fabI-overexpressing E. coli EW1b (pBAD-fabI); format: cell-based; settings: Escherichia coli
Experimental: as §1, §2

E. coli EW1b(pBAD) = experiment: Overexpression assay, MIC for vector-containing E. coli EW1b (pBAD); format: cell-based; settings: Escherichia coli
Experimental: as §1, §2

E. coli EW1b(pBAD-fabK) = experiment: Overexpression assay, MIC for fabK-overexpressing E. coli EW1b (pBAD-fabK); format: cell-based; settings: Escherichia coli
Experimental: as §1, §2

E. coli EW1b = experiment: Overexpression assay, MIC for pump-negative (tolC) E. coli EW1b; format: cell-based; settings: Escherichia coli
Experimental: as §1, §2

S. pneumoniae KCTC 3932 [3] = experiment: Inhibition of macromolecular biosynthesis (radiolabeled precursor incorporation) in S. pneumoniae; format: cell-based, Streptococcus pneumoniae; settings: drugs at 2 times the MIC
Experimental: (§5) To monitor the effects of compound 1 on lipid, DNA, RNA, protein, and cell wall biosynthesis, its effects on the incorporation of [1-^14C] acetate (50 mCi/mmol), [2-^14C] thymidine (59.8 mCi/mmol), [U-^14C] uridine (539 mCi/mmol), L-[U-^14C] leucine (306 mCi/mmol) or L-[U-^14C] isoleucine (329 mCi/mmol), and N-acetyl-D-[1-^14C] glucosamine (58.1 mCi/mmol) into S. aureus and S. pneumoniae were measured as described previously. S. aureus was exponentially grown to an A650 of 0.2 in Mueller–Hinton broth. S. pneumoniae was grown in tryptic soy broth supplemented with 5% sheep blood. […] An equal volume of DMSO solvent was added to the untreated control. After incubation with the radiolabeled precursors at 37°C for 1 h, followed by centrifugation, the cell pellets were washed twice with PBS buffer. After acetate incorporation, the total cellular lipids were extracted with chloroform-methanol-water. The incorporated radioactivity in the chloroform phase was measured by scintillation counting. For the other precursors, incorporation was terminated by adding 10% (w/v) TCA and cooling on ice for 20 min. The precipitated material was collected on Whatman GF/C glass microfiber filters, washed with TCA and ethanol, dried, and counted using a scintillation counter. The total counts incorporated at 1 h of incubation without inhibitors ranged from >7,000 for [U-^14C] uridine to <13,000 for [1-^14C] acetate. […] In all experiments, known antibacterial agents were included as positive controls.

S. aureus RN4220 [4] = experiment: Inhibition of macromolecular biosynthesis (radiolabeled precursor incorporation) in S. aureus; format: cell-based, Staphylococcus aureus; settings: drugs at 2 times the MIC
Experimental: as §5

E. coli FabI = target: T2, E. coli FabI (Escherichia coli, UniProt P0AEK4); experiment: E. coli FabI enzyme assay (NADH as cofactor); format: biochemical
T2 construct: made in house
T2 sequence (P0AEK4 whole entry): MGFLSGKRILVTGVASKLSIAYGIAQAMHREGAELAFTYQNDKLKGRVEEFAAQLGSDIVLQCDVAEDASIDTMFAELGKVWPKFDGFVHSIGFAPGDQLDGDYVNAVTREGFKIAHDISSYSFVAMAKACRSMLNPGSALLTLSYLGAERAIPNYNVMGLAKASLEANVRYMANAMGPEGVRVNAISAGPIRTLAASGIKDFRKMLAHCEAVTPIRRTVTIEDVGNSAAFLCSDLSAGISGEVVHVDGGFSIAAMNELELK
Text: as §3, §4

E. coli KCTC 1924 = experiment: MIC by broth microdilution, E. coli KCTC 1924; format: cell-based; settings: Escherichia coli, KCTC1924, read-out: MIC E. coli
Experimental: as §1

S. pneumoniae KCTC 3932 [5] = experiment: MIC by broth microdilution, S. pneumoniae KCTC 3932; format: cell-based; settings: Streptococcus pneumoniae, KCTC3932, read-out: MIC S. pneumoniae
Experimental: as §1

S. pneumoniae FabK = target: T3, S. pneumoniae FabK (Streptococcus pneumoniae, UniProt Q9FBC5); experiment: S. pneumoniae FabK enzyme assay; format: biochemical
T3 sequence (Q9FBC5 1-324): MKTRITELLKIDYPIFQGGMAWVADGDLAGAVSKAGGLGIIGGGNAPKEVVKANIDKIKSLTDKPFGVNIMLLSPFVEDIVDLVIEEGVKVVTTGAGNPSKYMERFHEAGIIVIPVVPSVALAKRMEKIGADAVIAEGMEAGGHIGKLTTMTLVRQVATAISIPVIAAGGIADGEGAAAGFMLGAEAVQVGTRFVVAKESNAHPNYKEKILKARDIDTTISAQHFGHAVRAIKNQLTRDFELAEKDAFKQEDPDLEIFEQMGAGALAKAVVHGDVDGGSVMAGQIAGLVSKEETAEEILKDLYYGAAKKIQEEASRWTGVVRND
Text: as §3, §4

[6] = S. aureus FabI, read-out: IC50 saFabI

CC[C@H]1OC(=O)[C@H](C)[C@@H](O[C@H]2C[C@@](C)(OC)[C@@H](O)[C@H](C)O2)[C@H](C)[C@@H](O[C@@H]2O[C@H](C)C[C@H](N(C)C)[C@H]2O)[C@](C)(O)C[C@@H](C)C(=O)[C@H](C)[C@@H](O)[C@]1(C)O [Erythromycin, reference compound]
MIC (S. aureus RN4220 (pE194)): 64 µg/mL (≈ 87.2 µM)
MIC (S. aureus RN4220 [1]): 0.5 µg/mL (≈ 0.681 µM)
MIC [2]: 64 µg/mL (≈ 87.2 µM)
IC50 (S. aureus FabI; [6]): > 100 µM

CC1(C)S[C@@H]2[C@H](NC(=O)[C@H](N)c3ccccc3)C(=O)N2[C@H]1C(=O)O [Ampicillin]
MIC (E. coli EW1b(pBAD-fabI); read-out: MIC E. coli EW1b(pBAD-fabI) (+) Ara): > 125 µg/mL
MIC (E. coli EW1b(pBAD-fabI); read-out: MIC E. coli EW1b(pBAD-fabI) (−) Ara): > 125 µg/mL
MIC (E. coli EW1b(pBAD); read-out: MIC E. coli EW1b(pBAD) (+) Ara): > 125 µg/mL
MIC (E. coli EW1b(pBAD); read-out: MIC E. coli EW1b(pBAD) (−) Ara): > 125 µg/mL
MIC (E. coli EW1b(pBAD-fabK); read-out: MIC E. coli EW1b(pBAD-fabK) (+) Ara): > 125 µg/mL
MIC (E. coli EW1b(pBAD-fabK); read-out: MIC E. coli EW1b(pBAD-fabK) (−) Ara): > 125 µg/mL
MIC (E. coli EW1b; read-out: MIC E. coli EW1b (+) Ara): 1 µg/mL (≈ 2.86 µM)
MIC (E. coli EW1b; read-out: MIC E. coli EW1b (−) Ara): 1 µg/mL (≈ 2.86 µM)

O=C(N[C@H](CO)[C@H](O)c1ccc([N+](=O)[O-])cc1)C(Cl)Cl [chlorampenicol, chloramphenicol, reference compound]
Inhibition of precursor incorporation, L-[U-14C] Isoleucine (S. pneumoniae KCTC 3932 [3]): 85%
Inhibition of precursor incorporation, L-[U-14C] Isoleucine (S. aureus RN4220 [4]): 74%

CCn1cc(C(=O)O)c(=O)c2cc(F)c(N3CCNCC3)cc21 [Norfloxacin, reference compound]
MIC (S. aureus RN4220 (pE194)): 1 µg/mL (≈ 3.13 µM)
MIC (S. aureus RN4220 [1]): 1 µg/mL (≈ 3.13 µM)
Inhibition of precursor incorporation, [2-14C] Thymidine (S. pneumoniae KCTC 3932 [3]): 83%
MIC [2]: 1 µg/mL (≈ 3.13 µM)
IC50 (S. aureus FabI; [6]): > 100 µM
Inhibition of precursor incorporation, [2-14C] Thymidine (S. aureus RN4220 [4]): 79%

C=CC(C)(C)C12C=C(O)C(=O)N3/C(=C/c4cnc[nH]4)C(=O)NC31Nc1ccccc12 (stereo not shown) [Compound 2, glandicolin A]
IC50 (E. coli FabI): 49.7 µM
MIC (S. aureus RN4220 [1]): 64 µg/mL (≈ 159 µM)
MIC (E. coli KCTC 1924): 64 µg/mL (≈ 159 µM)
IC50 (S. aureus FabI): 54.6 µM
MIC (S. pneumoniae KCTC 3932 [5]): 64 µg/mL (≈ 159 µM)
IC50 (S. pneumoniae FabK): > 200 µM

CO[C@H]1/C=C/O[C@@]2(C)Oc3c(C)c(O)c4c(O)c(c(/C=N/N5CCN(C)CC5)c(O)c4c3C2=O)NC(=O)/C(C)=C\C=C\[C@H](C)[C@H](O)[C@@H](C)[C@@H](O)[C@@H](C)[C@H](OC(C)=O)[C@@H]1C [rifampin, reference compound]
Inhibition of precursor incorporation, [U-14C] Uridine (S. pneumoniae KCTC 3932 [3]): 92%
Inhibition of precursor incorporation, [U-14C] Uridine (S. aureus RN4220 [4]): 69%
